# In US12281077B2, “Solid forms of n-tert-butyl-4[[2-(5-chloro-2-hydroxy-phenyl)acetyl]amino]pyridine-2-carboxamide” (TMEM16A LIMITED, priority 2019, dated 2025):
# Entries after “also recorded” stand apart in the source; their conditions may differ. Like-named read-outs stand apart in the source and are kept apart here.
# Columns and labels:
# Format in all cases: physicochemical
# [1] = Thermocycling of Form A, Form B(I) and Form B(II) in purified water; conditions: purified water (10 vol), −10 to +10° C., ±0.5° C./minute, 75 h
# Experimental: Samples of Compound 1, Form A, Form B(I) and Form B(II) were charged to separate Crystal 16 blank, glass vials and purified water (1 ml, 10.0 vol) was added each vial. Each vial underwent thermocycling from −10 to +10° C. at a ramp rate of ±0.5° C./minute, over 75 h.
# [2] = Compaction of Forms B(I) and B(II) (ca 10 tonnes)
# Source text: Assuming that the inconsistencies between the dehydration behaviours of the two batches were attributed to different locations and bindings of their water occupancies, both were examined after 10 tonne compaction, to determine if their dehydration features were conserved or altered after the application of equal pressure treatments.
# A finely divided specimen of Form B(II) was applied evenly to the smooth surface of the lower sample anvil that was located inside the compression cell apparatus. A second smoothed face anvil was placed above the first and the sample was pressed into place using finger pressure. The sealed sample cell was then evacuated under house vacuum pressure for at least 5 minutes. An axial load of ca 10 metric tonnes was applied to the upper anvil and the specimen was maintained under a state of unilateral compression for at least 15 minutes. After which time, the apparatus was dismantled and the product was retrieved from the sample holder and analysed to determine if any phase modifications had taken place.
# [3] = Suspension equilibration of Form B(II) in acetonitrile/water
# Experimental: To further investigate the stability hierarchy of Form B (I) and Form B (II), an equal portion of both Form B (I) and Form B (II) were competitively slurry ripened in 4 to 1 MeCN/Water (w/w) for 3 days.
# One portion of Form B(II) (1.06 g) was charged with 4 to 1 v/v acetonitrile/water (15 vol, 15 ml). This was stirred at room temperature with a flow of nitrogen. The mixture was subsampled at t=4 h and t=23 h. The subsamples were centrifuged down (13400 rpm for 15 min), supernatants were removed and dried overnight in oven at 40° C. under reduced pressure.
# [4] = Suspension equilibration of Form B in anhydrous acetonitrile; conditions: room temperature
# Experimental: One portion of Form B(II) (1.01 g) was charged with anhydrous acetonitrile (15 vol, 15 ml).
# This was stirred at room temperature with a flow of nitrogen. The mixture IPC was subsampled at t=3 h and t=23 h. The subsampled mixtures were centrifuged down (13400 rpm for 15 min), supernatants were removed and dried overnight in oven at 40° C. under reduced pressure. The remaining solid was dried (t=2 days) in oven overnight under reduced pressure at 40° C. overnight. The dried white solid (0.54 g, 54% yield not corr.) was analysed by XRPD and DSC.
# A similar procedure was carried out for a portion of Form B(I) (1.06 g). Int his case, the mixture was subsampled at t=5 h and isolation was carried out at t=5 days. The uncorrected yield was 66%.
# [5] = Suspension equilibration of Form B(II) in purified water; conditions: room temperature
# Experimental: One portion of Form B(II) (1.0 g) was charged with purified water (15 vol, 15 ml). This was stirred at room temperature with a flow of nitrogen for 20 h. The mixture was subsampled at t=2 h and t=20 h. The subsampled mixture was centrifuged down (13400 rpm for 15 min) and supernatant was removed. The remaining solid was dried (at t=3 days) in the oven under reduced pressure at 40° C. overnight. The dried white solid (A0903-184-C1, 0.84 g, 83% yield not corr.). The result for the sample at 3 days are not shown as these are the same as the subsample taken at 20 hours.
# [6] = Dynamic vapour sorption (DVS) of Form A
# Experimental: The moisture sorption properties of the feed API were analysed by DVS (DVS Intrinsic,
# Surface Measurement System). Approximately 50 mg of API was weighed into an aluminium pan and loaded into the instrument at 25° C. The sample was allowed to equilibrate under dry atmosphere (0% relative humidity) for 1 hour before increasing the humidity from 0% to 30% at 5% step increment and from 30% to 90% at 10% step increment. A desorption cycle was also applied from 90% to 30% (10% step) and from 30% to 0% (5% step). A rate of change by time was set as the equilibrium parameter (1 hour each step). Kinetic and isotherm graphs were calculated.
# [7] = Thermocycling of Form B(I) in buffered aqueous suspensions (Form A control); conditions: −10° C. to +40° C.
# Experimental: Form B(I) was prepared in the relevant formulation under sterile conditions. The samples were thermocycled for approximately 202 complete cycles. Off-line analyses of the suspensions were performed by polarised light microscopy and end point sampling was performed on the isolated solid pellets of the suspensions after centrifugation. The thermocycling incorporated a wide temperature range (−10° C. to +40° C.). A parallel study was performed using micronised Form A as control.
# In all cases, the suspension volume was 2 ml and thermocycling was carried out over a temperature range −10° C. to +40° C. at a rate of change of 1° C./min for a duration of 336 hours (14 days) and […] cycles.
# At daily intervals, a droplet from each thermocycle suspension was withdrawn, placed on a microscope slide and photographed. After 14 days constant thermocycling, the suspensions were filtered, isolable solids were oven dried and analysed for evidence of form change and change in chemical purity.
# [8] = Aqueous surfactant equilibration of Form A: conversion into Form B monitored by XRPD
# Experimental: A sample of Form A was micronised using an AS100 spiral jet mill (Alpine) with a ZD9 screw dosing system at a milling gas pressure of 5.0 bar (18° C.) and an injection gas pressure of 6.0 bar (18° C.). Feed rate was 350 g/hr.
# Form A and micronised Form A were added to purified water containing the surfactants shown in Table 6, and the mixtures were stirred at 20° C.
# Sub samples (300 to 500 μl) were withdrawn at the appropriate time points. The mixtures were centrifuged, the clarified supernatant was decanted, and the pellet was oven dried (20° C., 24 h) and analysed by XRPD. […] The time taken for complete conversion of Form A into Form B was concluded when Form A was no longer detectable by XRPD.
# A micelle is an aggregate of surfactant molecules dispersed in a liquid colloid. Micelles form only when the concentration of surfactant is greater than the critical micelle concentration (CMC). • Surf 1: TWEEN® 80 (polysorbate 80; polyoxyethylene sorbitan monooleate) Critical Micellar Concentration (CMC) 13-15 mg/litre [actual concentration used=1 mg/ml, 1000 mg/litre>CMC] • Surf 2: TWEEN® 20 (polysorbate 20; polyethylene glycol sorbitan monolaurate) 20 Critical Micellar Concentration (CMC) ca 61 mg/litre [actual concentration used=0.5 mg/ml, 500 mg/litre>CMC] • Surf 3: SPAN® 20 (sorbitan monolaurate) no CMC in water, too hydrophobic and yet still exerted an inhibitory effect on the form conversion • Surf 4: TWEEN® 80 Critical Micellar Concentration (CMC) 13-15 mg/litre [actual concentration used=0.01 mg/ml, 10 mg/litre<CMC] • TWEEN® surfactants are soluble in water and SPAN® surfactants are oil soluble and not able to form micelles in water.
# [9] = Suspension equilibrations of Form A (Example 7)
# Experimental: Compound 1 Form A, (ca 50 mg, 1.0 wt) and the appropriate solvent (1000 μl, 20 vol) were charged to separate vessels and stirred for 7 days at 20° C. After this time the products were cooled, isolated by filtration, washed with recycled maturation solvent, dried under reduced pressure at 40° C. and analysed by XRPD for evidence of alternative crystalline forms.
# Separate portions of Compound 1, Form A (ca 50 mg, 1.0 wt.), and the appropriate solvent (1000 μl, 20 vol.) were charged to separate vessels and stirred for 7 days at 40° C. After this time, the products were cooled, isolated by filtration, washed with recycled maturation solvent, dried under reduced pressure at 40° C. and analysed by XRPD for evidence of alternative crystalline forms. N.B. water was also included in this screen. • All of the products corresponded to Form A, except the product isolated from tBME (Form D), and from THF (Form G; see FIG. 18). […] C. Aqueous Suspension Equilibrations of Form A at 20° C.
# Separate portions of Compound 1, Form A (ca 50 mg, 1.0 wt.), and the appropriate solvent (950 μl, 19 vol) and purified water (50 μl, 1.0 vol) were charged to separate vessels and stirred for 7 to 10 days at 20° C. […] Form C is an anhydrous form, and sometimes occurs in the presence of aromatic solvents (toluene and trifluorotoluene).
# [10] = Competitive suspension equilibrations in acetonitrile; conditions: acetonitrile (20 vol)
# Source text: Form A of Compound 1 and the appropriate other form(s) of Compound 1 were suspended in acetonitrile (20 vol). […] When completed, the products were isolated, oven dried and analysed by XRPD.
# [11] = citrate buffered surfactant suspensions, 1° C./min, 14 days
# [12] = micronised (particle size 2 μm), 20° C., with or without surfactant
structure (smiles),measurement,setting,value
"CC(C)(C)NC(=O)c1cc(NC(=O)Cc2cc(Cl)ccc2O)ccn1 [Form B(II), N-tert-Butyl-4-[[2-(5-chloro-2-hydroxy-phenyl)acetyl]amino]pyridine-2-carboxamide]",form change by XRPD and DSC after thermocycling,[1],almost all converted to the unimodal event
same,degree of crystallinity by XRPD before compression,[2],87.2%
same,form after 10 tonne compaction (DSC),[2],converted to Form B(I)
same,degree of crystallinity by XRPD after compression,[2]; ca 10 metric tonnes,80.3%
same,form after 10 tonne compaction (DSC),[2]; listed as Form B (II),Form B (I) emerged
same,"form after stirring in 4 to 1 v/v acetonitrile/water (DSC, XRPD)","[3]; room temperature, t=4 h and t=23 h",production of Form B(I); also recorded: converted to Form B(I)
same,form after suspension equilibration in anhydrous acetonitrile (XRPD),"[4]; 3 hours, 23 hours and 3 days substantially the same",rapidly converted to Form A
same,form after suspension equilibration in purified water (DSC),[5]; 2 hours,only the unimodal event was observed; also recorded: converted to Form B(I)
same,form after suspension equilibration in purified water (DSC),[5]; 20 hours and three days,converted to Form B(I)
"CC(C)(C)NC(=O)c1cc(NC(=O)Cc2cc(Cl)ccc2O)ccn1 [Form A, N-tert-Butyl-4-[[2-(5-chloro-2-hydroxy-phenyl)acetyl]amino]pyridine-2-carboxamide]",form change by XRPD and DSC after thermocycling,[1],did not change
same,"hydrate formation, XRPD repeated after the DVS test",[6],no hydrate was formed
same,hygroscopicity / moisture affinity by DVS,[6],not hygroscopic
same,change in mass (uptake of water) by DVS,"[6]; 90% relative humidity (RH), 25° C.",0.02%
same,form after thermocycling (XRPD),"[7]; citrate buffered Tween® 20/Span® 22, 14 days, 1° C./min",converted to Form B
same,form after thermocycling (XRPD),"[7]; citrate buffered Tween® 80, 14 days, 1° C./min",converted to Form B
same,time point of first morphological change (polarised light microscopy),"[7]; citrate buffered surfactant suspensions, 1° C./min",eight day
same,"form stability to constant thermocycling (XRPD, DSC, TGA, microscopy)",[7]; [11],changed into Form B(I)
same,chemical purity after thermocycling,"[7]; 14 days, accompanying the form change",No reduction in chemical purity
same,storage stability of Form A in pre-made composition (surfactant present),[8]; 20 to 40° C. storage conditions,120 h
same,Form B in aqueous suspension of Form A,[8]; 24 hour time point,no Form B can be detected
same,form present in aqueous suspension of Form A,[8]; after 8 days,substantially all of the Compound 1 was present as the Form B hydrate crystalline form
same,time after which micronised Form A had almost completely converted into Form B,[8]; [12],146 h
same,time after which micronised Form A had started to convert to Form B,[8]; [12],48 h
same,form after suspension equilibration in purified water only (XRPD),"[9]; 20° C., 7 to 10 days",partial conversion into Form B
same,form after suspension equilibration in purified water (XRPD),"[9]; 40° C., 7 days","Form A, no Form B was evident"
same,form stability in solvent suspension (XRPD),"[9]; anhydrous solvents (20 vol), 20° C., 7 days",resilient to prolonged solvent mediated treatments
same,Output form (XRPD),"[10]; 40 ° C., stirred 7 days",Form A
CC(C)(C)NC(=O)c1cc(NC(=O)Cc2cc(Cl)ccc2O)ccn1 [Form B (I) and Form B (II)],resulting solid (DSC) after competitive slurry ripening,"[3]; 4 to 1 MeCN/Water (w/w), 3 days",Form B (I)
CC(C)(C)NC(=O)c1cc(NC(=O)Cc2cc(Cl)ccc2O)ccn1 [Form A + Form F (1/1 w/w)],Output form (XRPD),[10]; 20 ° C.,Form A
CC(C)(C)NC(=O)c1cc(NC(=O)Cc2cc(Cl)ccc2O)ccn1 [Form A + Form D (1/1 w/w)],Output form (XRPD),"[10]; 40 ° C., stirred 7 days",Form A
"CC(C)(C)NC(=O)c1cc(NC(=O)Cc2cc(Cl)ccc2O)ccn1 [Form B(I), N-tert-Butyl-4-[[2-(5-chloro-2-hydroxy-phenyl)acetyl]amino]pyridine-2-carboxamide]",form change by XRPD and DSC after thermocycling,[1],unchanged
same,form after 10 tonne compaction (DSC),[2],unchanged
same,"form stability to constant thermocycling (XRPD, DSC, TGA, microscopy)",[7]; [11],stable
same,form after suspension equilibration in anhydrous acetonitrile (XRPD),"[4]; 5 hours, 5 days similar",rapidly converted to Form A
